Experimental findings from patent US8202868B2, “4-piperazinyl-pyrimidine compounds suitable for treating disorders that respond to modulation of the dopamine D3 receptor” (Abbott GmbH & Co. KG, priority 2004, dated 2012) are described below.

Structures can show the parent of a compound that is named as a salt.

Assay [1] has as its target T1, human dopamine D3 receptors (Homo sapiens, UniProt P35462).
T1 construct: expressed in transfected cells; host or cells: HEK-293
In words: Dopamine D3 receptor binding, [125I]-iodosulpride displacement. The note with it: for Ki: membranes of HEK-293 cells, 0.1 nM [125I]-iodosulpride, 25° C., 60 minutes; for Ki(D2)/Ki(D3): selectivity ratio of receptor binding constants. The protocol: (§1) The substance to be tested was either dissolved in methanol/Chremophor® (BASF-AG) or in dimethyl sulfoxide and then diluted with water to the desired concentration.
(§2) Each assay mixture was run in triplicate.
The incubation buffer contained 50 mM tris, 120 mM NaCl, 5 mM KCl, 2 mM CaCl2, 2 mM MgCl2 and 0.1% bovine serum albumin, 10 μM quinolone and 0.1% ascorbic acid (prepared fresh daily). The buffer was adjusted to pH 7.4 with HCl.
(§3) After having been incubated at 25° C. for 60 minutes, the assay mixtures were filtered through a Whatman GF/B glass fiber filter under vacuum using a cell collecting device. The filters were transferred to scintillation viols using a filter transfer system. After 4 ml of Ultima Gold® (Packard) have been added, the samples were shaken for one hour and the radioactivity was then counted in a Beta-Counter (Packard, Tricarb 2000 or 2200CA). The cpm values were converted into dpm using a standard quench series and the program belonging to the instrument.
(§4) The inhibition curves were analyzed by means of iterative nonlinear regression analysis using the Statistical Analysis System (SAS) which is similar to the “LIGAND” program described by Munson and Rodbard.

Assay [2] has as its target T2, human dopamine D2L receptors (long isoform) (Homo sapiens, UniProt P14416).
T2 construct: expressed in transfected cells; host or cells: HEK-293
Briefly: Dopamine D2L receptor binding, [125I] iodospiperone displacement. The note with it: membranes of HEK-293 cells, 0.01 nM [125I] iodospiperone, 25° C., 60 minutes; read-out: Ki(D2). The protocol:
as §1, §2
The incubation buffer contained 50 mM tris, 120 mM NaCl, 5 mM KCl, 2 mM CaCl2, 2 mM MgCl2 and 0.1% bovine serum albumin. The buffer was adjusted to pH 7.4 with HCl.
as §3, §4

T1 sequence (P35462 whole entry): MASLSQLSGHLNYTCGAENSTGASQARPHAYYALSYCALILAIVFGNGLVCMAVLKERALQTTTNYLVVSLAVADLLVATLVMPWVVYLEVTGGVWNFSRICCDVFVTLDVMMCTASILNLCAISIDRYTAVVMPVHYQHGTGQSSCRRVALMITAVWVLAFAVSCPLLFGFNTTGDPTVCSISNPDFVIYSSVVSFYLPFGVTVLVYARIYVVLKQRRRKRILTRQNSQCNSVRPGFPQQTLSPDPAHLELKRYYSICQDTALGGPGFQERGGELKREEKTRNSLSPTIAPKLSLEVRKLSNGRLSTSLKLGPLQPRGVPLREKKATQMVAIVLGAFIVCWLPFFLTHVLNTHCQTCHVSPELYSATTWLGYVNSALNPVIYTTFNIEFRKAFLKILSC
T2 sequence (P14416 whole entry, canonical isoform): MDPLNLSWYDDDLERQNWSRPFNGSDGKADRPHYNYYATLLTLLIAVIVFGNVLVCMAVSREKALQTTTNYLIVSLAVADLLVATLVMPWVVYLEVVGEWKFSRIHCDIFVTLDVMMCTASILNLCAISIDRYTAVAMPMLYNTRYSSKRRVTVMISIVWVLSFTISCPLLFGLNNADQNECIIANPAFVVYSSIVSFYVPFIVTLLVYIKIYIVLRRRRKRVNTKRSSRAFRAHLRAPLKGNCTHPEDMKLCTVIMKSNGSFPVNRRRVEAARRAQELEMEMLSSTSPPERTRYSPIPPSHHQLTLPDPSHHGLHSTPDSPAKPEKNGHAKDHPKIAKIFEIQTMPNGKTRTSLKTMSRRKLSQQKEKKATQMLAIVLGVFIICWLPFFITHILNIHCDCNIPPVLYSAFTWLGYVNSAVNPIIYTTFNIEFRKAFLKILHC

With `CC(C)(C)c1nc(C2CCC2)cc(N2CCN(CCCCNC(=O)c3cccnc3)CC2)n1` [Example 12, N-{4-[4-(2-tert-Butyl-6-cyclobutyl-pyrimidin-4-yl)-piperazin-1-yl]-butyl}-nicotinamide], in assay [1], the Ki is 1 nM and the “Ki(D2)/Ki(D3)” value is reported as 121. The Ki in assay [2] was 115 nM.

Take `Cc1nnc(SCCCN2CCN(c3cc(C4(C)CC4)nc(C(C)(C)C)n3)CC2)n1C` [Example 54, 2-tert-butyl-4-{4-[3-(4-methyl-5-methyl-4H-[1,2,4]triazol-3-ylsulfanyl)-propyl]piperazin-1-yl}-6-(1-methyl)cyclopropyl-pyrimidine]: in assay [1], the Ki is 0.64 nM and the “Ki(D2)/Ki(D3)” value stood at 124. The Ki in assay [2] was determined as 80 nM.

As for `Cn1c(SCCCN2CCN(c3cc(C4CC4)nc(C(C)(C)C)n3)CC2)nnc1-c1cnccn1` [Example 56, 2-tert-butyl-4-{4-[3-(5-pyrazin-4-methyl-4H-[1,2,4]triazol-3-ylsulfanyl)-propyl]-piperazin-1-yl}6-cyclopropyl-pyrimidine hydrochloride], in assay [1], the Ki was 0.47 nM and the “Ki(D2)/Ki(D3)” value worked out at 109. The Ki in assay [2] amounted to 51.2 nM.

With `CC(C)(C)c1nc(C2CCC2)cc(N2CCN(CCCCNC(=O)c3ccncc3)CC2)n1.Cl` [Example 11, N-{4-[4-(2-tert-Butyl-6-cyclobutyl-pyrimidin-4-yl)-piperazin-1-yl]-butyl}-isonicotinamide hydrochloride], in assay [1], the Ki was found to be 0.9 nM and the “Ki(D2)/Ki(D3)” value was found to be 150. In addition, the Ki in assay [2] was determined as 137 nM.

As to `Cc1nnc(SCCCN2CCN(c3cc(C4CCC4)nc(C(C)(C)C)n3)CC2)s1.Cl` [Example 2, 2-tert-Butyl-4-cyclobutyl-6-{4-[3-(5-methyl-[1,3,4]thiadiazol-2-ylsulfanyl)-propyl]-piperazin-1-yl}-pyrimidine hydrochloride], in assay [1], the inhibition constant (Ki) stood at 1.4 nM and the “Ki(D2)/Ki(D3)” value came to 96. Further, the Ki in assay [2] stood at 135 nM.

With `Cn1cnnc1SCCCN1CCN(c2cc(C(F)(F)F)nc(C3(C)CC3)n2)CC1` [Example 65, 2-(1-Methyl-cyclopropyl)-4-{4-[3-(4-methyl-4H-[1,2,4]triazol-3-ylsulfanyl)-propyl]-piperazin-1-yl}-6-trifluoromethyl-pyrimidine], the Ki is 22.1 nM in assay [1] and 797 nM in assay [2]. Moreover, the “Ki(D2)/Ki(D3)” value in assay [1] is given as 36.

Take `CC(C)(C)c1nc(C2CCC2)cc(N2CCN(CCCCNC(=O)c3ccc(F)cc3)CC2)n1.Cl` [Example 10, N-{4-[4-(2-tert-Butyl-6-cyclobutyl-pyrimidin-4-yl)-piperazin-1-yl]-butyl}-4-fluoro-benzamide hydrochloride]: in assay [1], the affinity, expressed as Ki, was 0.5 nM and the “Ki(D2)/Ki(D3)” value stood at 163. Besides, the Ki in assay [2] came out at 87 nM.

As for `CC(C)(C)c1nc(C2CCC2)cc(N2CCN(CCCOc3nccc(O)n3)CC2)n1` [Example 26, 2-{3-[4-(2-tert-Butyl-6-cyclobutyl-pyrimidin-4-yl)-piperazin-1-yl]-propoxy}-pyrimidin-4-ol], in assay [1], the Ki stood at 4.8 nM and the “Ki(D2)/Ki(D3)” value amounted to 70. Besides, in assay [2], the Ki was 337 nM.

Regarding `Cn1c(OCCCN2CCN(c3cc(C4(C)CC4)nc(C(C)(C)C)n3)CC2)nnc1-c1ccccc1` [Example 63, 2-tert-Butyl-4-(1-methyl-cyclopropyl)-6-{4-[3-(4-methyl-5-phenyl-4H-[1,2,4]triazol-3-yloxy)-propyl]-piperazin-1-yl}-pyrimidine], in assay [1], the Ki is 2.6 nM and the “Ki(D2)/Ki(D3)” value came out at 40. In addition, the Ki in assay [2] was determined as 104 nM.

In the case of `Cn1c(SCCCN2CCN(c3cc(C4CCC4)nc(C(C)(C)C)n3)CC2)nnc1C(F)(F)F` [Example 42, 2-tert-Butyl-4-{4-[3-(4-methyl-5-trifluoromethyl-4H-[1,2,4]triazol-3-ylsulfanyl)-propyl]-piperazin-1-yl}-6-cyclobutyl-pyrimidine], the results for the Ki in assay [1] and in assay [2] were 2 nM and 405 nM, respectively. For the same compound, the “Ki(D2)/Ki(D3)” value in assay [1] came to 203.

As to `Cl.Cn1nnnc1SCCCN1CCN(c2cc(C3CC3)nc(C(C)(C)C)n2)CC1` [Example 35, 2-tert-Butyl-4-cyclopropyl-6-{4-[3-(1-methyl-1H-tetrazol-5-ylsulfanyl)-propyl]-piperazin-1-yl}-pyrimidine hydrochloride], in assay [1], the Ki came out at 3.8 nM and the “Ki(D2)/Ki(D3)” value is recorded as 154. Also, the Ki in assay [2] was 587 nM.

As to `C[C@@H](COc1ncccn1)CN1CCN(c2cc(C3CCC3)nc(C(C)(C)C)n2)CC1.Cl` [Example 28, (R)-2-tert-Butyl-4-cyclobutyl-6-{4-[2-methyl-3-(pyrimidin-2-yloxy)-propyl]-piperazin-1-yl}-pyrimidine hydrochloride], in assay [1], the Ki stood at 3.8 nM and the “Ki(D2)/Ki(D3)” value came to 78. Further, the Ki in assay [2] is 296 nM.

As for `Cc1nnc(SCCCN2CCN(c3cc(C4CC4)nc(C(C)(C)C)n3)CC2)n1C.Cl` [Example 45, 2-tert-Butyl-4-{4-[3-(4-methyl-5-methyl-4H-[1,2,4]triazol-3-ylsulfanyl)-propyl]-piperazin-1-yl}-6-cyclopropyl-pyrimidine hydrochloride], the figures for the Ki in assay [1] and in assay [2] were 1.2 nM and 272 nM, respectively. Moreover, the “Ki(D2)/Ki(D3)” value in assay [1] came out at 234.

Consider “2-tert-Butyl-4-cyclobutyl-6-{4-[3-(1-methyl-1H-tetrazol-5-ylsulfanyl)-propyl]-piperazin-1-yl}-pyrimidine [Example 9]”, for which, in assay [1], the Ki is 4.1 nM and the “Ki(D2)/Ki(D3)” value is listed as 106. The inhibitory constant (Ki) in assay [2] was found to be 432 nM.

For the compound `Cl.Cn1cccc1-c1nnc(SCCCN2CCN(c3cc(C4CCC4)nc(C(C)(C)C)n3)CC2)n1C` [Example 66, 2-tert-Butyl-4-cyclobutyl-6-(4-{3-[4-methyl-5-(1-methyl-1H-pyrrol-2-yl)-4H-[1,2,4]triazol-3-ylsulfanyl]-propyl}-piperazin-1-yl)-pyrimidine hydrochloride], the Ki in assay [1] was 0.96 nM; in assay [2], 102 nM. For the same compound, in assay [1], the “Ki(D2)/Ki(D3)” value amounted to 106.

With `Cn1c(SCCCN2CCN(c3cc(C4CCC4)nc(C(C)(C)C)n3)CC2)nnc1C1CC1.O=C(O)/C=C/C(=O)O` [Example 44, 2-tert-Butyl-4-{4-[3-(4-methyl-5-cyclopropyl-4H-[1,2,4]triazol-3-ylsulfanyl)-propyl]-piperazin-1-yl}-6-cyclobutyl-pyrimidine fumarate], in assay [1], the Ki amounted to 0.6 nM and the “Ki(D2)/Ki(D3)” value was 250. Besides, in assay [2], the Ki was determined as 142 nM.

Consider `CC(C)(C)c1nc(C2CCC2)cc(N2CCN(CCCSc3ncccn3)CC2)n1.Cl` [Example 4, 2-tert-Butyl-4-cyclobutyl-6-{4-[3-(pyrimidin-2-ylsulfanyl)-propyl]-piperazin-1-yl}-pyrimidine hydrochloride], for which, in assay [1], the inhibitory constant (Ki) was determined as 0.9 nM and the “Ki(D2)/Ki(D3)” value worked out at 127. For the same compound, the Ki in assay [2] was 113 nM.

For `Cl.Cn1c(SCCCN2CCN(c3cc(C4CC4)nc(C(C)(C)C)n3)CC2)nnc1C(F)(F)F` [Example 47, 2-tert-Butyl-4-{4-[3-(4-methyl-5-trifluoromethyl-4H-[1,2,4]triazol-3-ylsulfanyl)-propyl]-piperazin-1-yl}-6-cyclopropyl-pyrimidine hydrochloride], in assay [1], the affinity, expressed as Ki, was 1.9 nM and the “Ki(D2)/Ki(D3)” value is 253. For the same compound, the Ki in assay [2] was 484 nM.

On to `CC(C)(C)c1nc(C2CCC2)cc(N2CCN(CCCCc3nccc(O)n3)CC2)n1` [Example 34, 2-{4-[4-(2-tert-Butyl-6-cyclobutyl-pyrimidin-4-yl)-piperazin-1-yl]-butyl}-pyrimidin-4-ol], for which the Ki in assay [1] was 1.1 nM; in assay [2], 77 nM. In addition, in assay [1], the “Ki(D2)/Ki(D3)” value is on record as 71.

In the case of `Cn1c(SCCCN2CCN(c3cc(C(C)(C)C)nc(C4CC4)n3)CC2)nnc1-c1cnccn1` [Example 57, 2-cyclopropyl-4-{4-[3-(5-pyrazin-4-methyl-4H-[1,2,4]triazol-3-ylsulfanyl)-propyl]-piperazin-1-yl}6-tert-butyl-pyrimidine hydrochloride], in assay [1], the affinity, expressed as Ki, was 5.47 nM and the “Ki(D2)/Ki(D3)” value stood at 296. Further, the Ki in assay [2] came to 1610 nM.

As to `Cn1cnnc1SCCCN1CCN(c2cc(C3(C)CC3)nc(C(C)(C)C)n2)CC1` [Example 53, 2-tert-butyl-4-{4-[3-(4-methyl-4H-[1,2,4]triazol-3-ylsulfanyl)-propyl]-piperazin-1-yl}-6-(1-methyl)cyclopropyl-pyrimidine], in assay [1], the Ki amounted to 1.2 nM and the “Ki(D2)/Ki(D3)” value came out at 50. Moreover, the Ki in assay [2] worked out at 58 nM.

Regarding `C[C@@H](COc1ccnc(O)n1)CN1CCN(c2cc(C3CCC3)nc(C(C)(C)C)n2)CC1` [Example 31, (R)-4-{3-[4-(2-tert-Butyl-6-cyclobutyl-pyrimidin-4-yl)-piperazin-1-yl]-2-methyl-propoxy}-pyrimidin-2-ol], the Ki in assay [1] was determined as 2 nM; in assay [2] it was 143 nM. In addition, the “Ki(D2)/Ki(D3)” value in assay [1] was 72.

A word on the Ki: it is a measure of affinity in units of concentration, obtained from inhibition or displacement.
